Experimental data as given in PMC4032192 (Journal of Medicinal Chemistry, 2014).

Target: rat nNOS (Rattus norvegicus, UniProt P29476)
Test: oxyhemoglobin NO capture assay, rat nNOS
Assay type: biochemical

rat nNOS, sequence (P29476 whole entry): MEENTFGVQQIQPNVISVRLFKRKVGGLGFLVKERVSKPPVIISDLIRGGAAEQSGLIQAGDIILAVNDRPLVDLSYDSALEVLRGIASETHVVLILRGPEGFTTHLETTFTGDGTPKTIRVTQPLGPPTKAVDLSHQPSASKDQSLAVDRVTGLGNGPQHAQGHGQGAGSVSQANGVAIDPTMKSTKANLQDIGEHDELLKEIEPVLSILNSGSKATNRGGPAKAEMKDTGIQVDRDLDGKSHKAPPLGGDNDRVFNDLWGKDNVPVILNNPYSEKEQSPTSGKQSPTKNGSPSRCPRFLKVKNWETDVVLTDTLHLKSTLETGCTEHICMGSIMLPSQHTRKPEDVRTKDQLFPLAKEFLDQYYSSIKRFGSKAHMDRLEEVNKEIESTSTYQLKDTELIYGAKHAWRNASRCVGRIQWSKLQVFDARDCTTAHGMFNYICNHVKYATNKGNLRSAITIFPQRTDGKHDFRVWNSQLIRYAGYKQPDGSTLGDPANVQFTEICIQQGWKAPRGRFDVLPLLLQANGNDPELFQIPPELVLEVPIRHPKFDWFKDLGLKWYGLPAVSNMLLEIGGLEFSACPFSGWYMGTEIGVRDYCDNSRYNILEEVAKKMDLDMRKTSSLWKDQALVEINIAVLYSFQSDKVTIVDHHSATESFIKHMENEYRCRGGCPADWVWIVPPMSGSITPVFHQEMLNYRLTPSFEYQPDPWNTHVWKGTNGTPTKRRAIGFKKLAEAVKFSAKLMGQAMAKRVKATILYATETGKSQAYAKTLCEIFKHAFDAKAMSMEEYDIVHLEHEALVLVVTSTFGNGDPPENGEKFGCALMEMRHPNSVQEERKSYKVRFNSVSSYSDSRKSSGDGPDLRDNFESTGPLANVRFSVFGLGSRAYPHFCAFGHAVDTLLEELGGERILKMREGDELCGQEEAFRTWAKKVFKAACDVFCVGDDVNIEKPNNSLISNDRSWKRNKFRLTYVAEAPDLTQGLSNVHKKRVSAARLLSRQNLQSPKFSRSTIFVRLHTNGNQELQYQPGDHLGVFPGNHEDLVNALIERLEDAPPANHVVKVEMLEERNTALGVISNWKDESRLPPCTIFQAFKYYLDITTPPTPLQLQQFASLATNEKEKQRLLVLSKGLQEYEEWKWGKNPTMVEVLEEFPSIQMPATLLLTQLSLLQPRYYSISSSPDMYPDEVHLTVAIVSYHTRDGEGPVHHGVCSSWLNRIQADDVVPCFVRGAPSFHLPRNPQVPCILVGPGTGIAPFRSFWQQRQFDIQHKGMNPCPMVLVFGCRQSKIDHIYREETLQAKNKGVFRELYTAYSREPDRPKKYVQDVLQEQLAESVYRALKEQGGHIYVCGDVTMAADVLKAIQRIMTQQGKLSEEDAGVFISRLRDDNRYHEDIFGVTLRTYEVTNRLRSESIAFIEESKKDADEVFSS

SMILES | Ki [nM]
Cc1cc(N)nc(CCc2cccc([C@H](N)Cc3cc(C)cc(N)n3)c2)c1 [Compound 3R, (R)-6-(2-Amino-2-(3-(2-(6-amino-4-methylpyridin-2-yl)ethyl)phenyl)ethyl)-4-methylpyridin-2-amine] | ~100
Cc1cc(N)nc(CCc2cccc(C(O)Cc3cc(C)cc(N)n3)c2)c1 (centres unmarked) [Compound 4] | ~100
